Test results published in patent EP3409671B1, “ISOTHIAZOLE DERIVATIVES AS GPR120 AGONISTS FOR THE TREATMENT OF TYPE II DIABETES” (Janssen Pharmaceutica NV, priority 2014, dated 2015).

Molecular target: T1, Human GPR120 short form (Homo sapiens, UniProt Q5NUL3)
T1 construct: expressed in transfected cells
T1 sequence (Q5NUL3 1-361): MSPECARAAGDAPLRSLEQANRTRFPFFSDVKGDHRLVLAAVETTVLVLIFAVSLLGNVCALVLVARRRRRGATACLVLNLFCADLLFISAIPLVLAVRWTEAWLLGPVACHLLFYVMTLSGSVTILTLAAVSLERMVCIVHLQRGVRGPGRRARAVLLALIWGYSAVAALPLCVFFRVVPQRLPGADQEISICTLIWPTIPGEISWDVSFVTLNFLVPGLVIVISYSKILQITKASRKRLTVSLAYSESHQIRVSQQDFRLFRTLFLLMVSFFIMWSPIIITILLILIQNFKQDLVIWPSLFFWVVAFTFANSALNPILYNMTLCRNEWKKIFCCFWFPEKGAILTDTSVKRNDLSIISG
Assay: Human GPR120 Calcium Flux Assay, Procedure Calcium A
Format: cell-based
Details: HEK-293 cells expressing Human GPR120 short form, FLIPR, 2500 cells / well; read-out: GPR120 Ca^2+ Assay A EC50
Excerpt: This in vitro assay serves to assess test compound agonist activity against the short splice variant (SVS with Accession number NM_001195755.1 confirmed by sequencing data) of the GPR120 receptor. The Human Short splice variant #2 (NM_001195755.1) is missing an in-frame coding exon compared to variant 1 (the Human Long splice variant NM_181745.3), resulting in a shorter isoform (GPR120-S) lacking a 16 aa protein segment compared to isoform GPR120-L. The assay platform utilizes HEK-293 cells stably transfected to express the Human GPR120 short form. These cells are first loaded with the Ca^+2 sensitive dye, Fluo-4 NW. Upon stimulation, intracellular released Ca^+2 can bind to the dye and alter its fluorescence intensity. This increase in fluorescence signal, and thus the flux in intracellular [Ca^2+], is detected and quantitated by fluorescence imaging using a FLIPR reader. The effect of the agonist is measured as a function of concentration and used to calculate an EC50 based upon a response curve.
In this procedure 2500 cells / well were employed.
A Human GPR120 clone (Genbank accession number NM _001195755.1) was placed into the pcDNA3.1 mammalian expression vector carrying the neomycin resistance gene. A stable mammalian cell was generated by placing the above clone into a HEK293 background. Clonal cells responding to long chain fatty acids had expression levels of GPR120 confirmed by RT-qPCR. Human HEK-GPR120 cells were cultured in Dulbecco's Modified Eagle's Medium (DMEM)/F12 medium supplemented with 10% fetal bovine serum (FBS), 1% L-Glutamine and 1% penicillin/streptomycin and 0.5 mg/ml G-418. Cells were split 2 times a week to keep the cells in the log-phase growth.
In preparation for the assay, HEK cells stably transfected with Human GPR120 (2.5K cells per well in 25uL growth medium) were seeded into 384-well plates and then incubated overnight (37°C, 5% CO2). The next day, the media was changed to 20 µL assay buffer and the cell starved for 1h at 37°C. […]
The assay was performed on a FLIPR plate reader using the following parameters. Baseline was read for 10 seconds at 1 sec intervals. The program was set to transfer 10µL of ligand from compound plate to cell plate after baseline reading. […] After compound addition, each well was read for 300 sec, with measurements collected at 1 sec intervals.
The kinetic data from the FLIPR was based upon a 5 minute window for data collection. The fluorescence of each sample well was used for individual calculations of a normalized RFU value, which was defined as maximum response minus the minimum response. The normalized fluorescence reading (RFU) was calculated as follows: RFU = Fmax−Fmin [formula] […]

SMILES	EC50 [nM]
O=C(O)CCc1ccc(OCc2c(C(F)(F)F)nsc2-c2ccc(Cl)cc2)c(Cl)c1Cl [Cpd 55, 3-(2,3-dichloro-4-[[5-(4-chlorophenyl)-3-(trifluoromethyl)-1,2-thiazol4-yl]methoxy]phenyl) propanoic acid]	231
O=C(O)CCc1cc(F)c(OCc2c(Cl)nsc2-c2ccc(Cl)cc2)c(F)c1 [Cpd 75, 3-(4-[[3-chloro-5-(4-chlorophenyl)-1,2-thiazol-4-yl]methoxy]-3,5-difluorophenyl)propanoic acid]	42
